What was measured:
Hep3B = experiment: Cell morphology and MTT cytotoxicity of agent alone; format: cell-based, human; parameters: dose or concentration left out as unconfirmed; conditions: AZI
Description: Then, HCC97L (3×10^3 well^−1), Hep3B (4×10^3 well^−1), PLC (4×10^3 well^−1), CNE1 (1.75×10^3 well^−1), CNE2 (3.5×10^3 well^−1), HONE1 (2×10^3 well^−1) and SUNE1 (2×10^3 well^−1) were seeded in 96-well plates (1004/well) and allowed to attach for 24 h. After that, human liver cancer cell lines were treated with 3 chemotherapeutic drugs separately at different concentrations (as indicated in FIG. 2) in the presence of the anti-mycoplasma antibiotics for 48 h. […] 104 of MTT (5 mg/ml final concentration; MP Biomedicals, LLC, CA, USA) was added to each well. After 4 h incubation at 37° C., the medium was removed and 100 μL/well DMSO (GBCBIO Technologies, Guangzhou, China) was added. The plates were mixed by a thermomixer for 5 min at RT. Absorbance measures were made in a microplate reader (iMark, Bio-Rad Laboratories, CA, USA) at 570/655 nm.

mycoplasma = experiment: Mycoplasma detection using quantitative real-time PCR in cancer cell lines; format: cell-based; parameters: dose or concentration left out as unconfirmed; conditions: AZI
Description: Total DNA was extracted from 5×10^5 cells from each group by digestion at 70° C. for 10 min in 0.5% Tween-20, 50 mM Tris (pH 8.5), 1 mM EDTA, and 200 mg/L proteinase K, followed by phenol/chloroform/isoamyl alcohol extraction and sodium acetate precipitation. DNA precipitates were washed with 70% ethanol, dried, and dissolved in 20 μL of sterile water. The extracted DNA ([…], 1.2 μg) from the cells was added to […] of the reaction solution, containing PCR buffer (SuperRealPreMix, SYBR Green; Tiangen Biotech, Beijing, China) and primers pairs for mycoplasma detection and reference control (β-actin) with a final concentration of 0.12 μM for each primer, to a total volume of 10 μL. Quantitative real-time PCR (qPCR) was performed as the following profile: 95° C. for 1 min (preincubation), followed by 40 cycles at 95° C. for 10 s (denaturation), 60° C. for 30 s (annealing and elongation). The primers (Table 1) for mycoplasma detection were gifts from Prof. Zhongning Lin (School of Public Health, Xiamen University) including two forward primers for universal mycoplasmal detection, one forward primer to detect Myco M. pirum., one for Myco A. laidlawii. detection and a mix of degenerate primers to work as the reverse primers.

HCC97L cells [1] = experiment: Cell morphology and MTT cytotoxicity of agent alone; format: cell-based, human; parameters: dose or concentration left out as unconfirmed; conditions: AZI
Description: (§1) Then, HCC97L (3×10^3 well^−1), Hep3B (4×10^3 well^−1), PLC (4×10^3 well^−1), CNE1 (1.75×10^3 well^−1), CNE2 (3.5×10^3 well^−1), HONE1 (2×10^3 well^−1) and SUNE1 (2×10^3 well^−1) were seeded in 96-well plates ([…]) and allowed to attach for 24 h. After that, human liver cancer cell lines were treated with 3 chemotherapeutic drugs separately at different concentrations (as indicated in FIG. 2) in the presence of the anti-mycoplasma antibiotics for 48 h. […] In the P37-ANXA2 interruption experiment, A2PP was dissolved in DMSO and HCC97L cells were pretreated with A2PP (as indicated in FIG. 3) 24 h before GEM or MX treatment. […] (5 mg/ml final concentration; MP Biomedicals, LLC, CA, USA) was added to each well. After 4 h incubation at 37° C., the medium was removed and 100 μL/well DMSO (GBCBIO Technologies, Guangzhou, China) was added. The plates were mixed by a thermomixer for 5 min at RT. Absorbance measures were made in a microplate reader (iMark, Bio-Rad Laboratories, CA, USA) at 570/655 nm.

HCC97L cells [2] = experiment: MTT assay, sensitivity to chemotherapeutic drugs with anti-mycoplasma agent or A2PP; format: cell-based, human; conditions: non-cytotoxic concentration of MXF or AZI; chemotherapeutic 48 h
Description: as §1

Hep3B cells = experiment: MTT assay, sensitivity to chemotherapeutic drugs with anti-mycoplasma antibiotics; format: cell-based, human; conditions: non-cytotoxic concentration of MXF or AZI; chemotherapeutic 48 h
Description: as §1

PLC/PRF/5 cell line = experiment: as above; format: cell-based, human; conditions: non-cytotoxic concentration of MXF or AZI; chemotherapeutic 48 h
Description: as §1

SUNE1 cells = format: cell-based, human
Description: as §1

CNE2 = format: cell-based, human
Description: as §1

HONE1 cells = format: cell-based, human
Description: as §1

CC[C@H]1OC(=O)[C@H](C)[C@@H](O[C@H]2C[C@@](C)(OC)[C@@H](O)[C@H](C)O2)[C@H](C)[C@@H](O[C@@H]2O[C@H](C)C[C@H](N(C)C)[C@H]2O)[C@](C)(O)C[C@@H](C)CN(C)[C@H](C)[C@@H](O)[C@]1(C)O [AZI, azithromycin]
toxicity to cells (cell morphology and MTT assay) (Hep3B): non-toxic
anti-mycoplasma effect (Real Time PCR) (mycoplasma; HCC97L cells): removed mycoplasma significantly
anti-mycoplasma effect (Real Time PCR) (mycoplasma; Hep3B cells): removed mycoplasma significantly
anti-mycoplasma effect (Real Time PCR) (mycoplasma; PLC/PRF/5 cell line): mycoplasma remained intact
toxicity to cells (cell morphology and MTT assay) (HCC97L cells [1]): non-toxic
sensitivity of HCC97L cells to CDDP (HCC97L cells [2]): enhanced
sensitivity of HCC97L cells to GEM (HCC97L cells [2]): enhanced
sensitivity of HCC97L cells to MX (HCC97L cells [2]): enhanced
sensitivity of Hep3B cells to GEM (Hep3B cells): enhanced
sensitivity of Hep3B cells to MX (Hep3B cells): enhanced
efficacy of the anti-tumor drugs (CDDP, GEM, MX) in PLC/PRF/5 cell line (PLC/PRF/5 cell line): neither MXF nor AZI improved the efficacy

COc1c(N2C[C@@H]3CCCN[C@@H]3C2)c(F)cc2c(=O)c(C(=O)O)cn(C3CC3)c12 [MXF, Moxifloxacin]
sensitivity of SUNE1 cells to 5-FU (SUNE1 cells): improved
sensitivity of CNE2 cells to 5-FU (CNE2): enhanced
sensitivity of HONE1 cells to 5-FU (HONE1 cells): enhanced
